The values below are quoted from earlier work in patent US12473269B2, “Urolithin derivatives and methods of use thereof” (Vandria SA, priority 2021, dated 2025).

The series concerns C2C12 myoblasts. To be noted: treatment of C2C12 myoblasts; mitochondrial fragmentation and decrease in mitochondrial content; Ryu et al., Nat Med 2016.

As for `O=c1oc2cc(O)ccc2c2ccc(O)cc12` [UA, Urolithin A], the induction of mitophagy result is on record as “induction of mitophagy”.
